# ChEMBL document CHEMBL1629484, “1,2-diamino-ethane-substituted-6,7,8,9-tetrahydro-5H-pyrimido[4,5-d]azepines as TRPV1 antagonists with improved properties” (Bioorg Med Chem Lett, 2010)
# Activity calls are given as the source filed them. No cut-off for these calls is given here.
# Columns and labels:
# [1] = Aqueous equilibrium solubility of compound in simulated intestinal fluid at pH 6.8; type: physicochemical
# [2] = Aqueous equilibrium solubility of compound in phosphate buffer at pH 2; type: physicochemical
# [3] = molecular target: T1, Transient receptor potential cation channel subfamily V member 1 (Rattus norvegicus, UniProt O35433); test: Antagonist activity at rat TRPV1 expressed in HEK293 cells assessed as inhibition of capsaicin-induced intracellular Ca2+ level by FLIPR assay; type: functional, cell-based
# [4] = molecular target: T2, Transient receptor potential cation channel subfamily V member 1 (Homo sapiens, UniProt Q8NER1); test: Antagonist activity at human TRPV1 expressed in HEK293 cells assessed as inhibition of capsaicin-induced intracellular Ca2+ level by FLIPR assay; type: functional, cell-based
# [5] = Clearance in rat; type: ADME, organism-based; conditions: in vivo
# Rattus norvegicus [6] = test: Analgesic activity against carrageenan-induced thermal hyperalgesia in rat assessed as maximal possible effect at 30 mg/kg, po administered 3 hrs post-carrageenan challenge; type: functional
# Rattus norvegicus [7] = test: Analgesic activity against carrageenan-induced thermal hyperalgesia in rat at 5 mg/kg, po administered 1 hr before carrageenan challenge; type: functional, organism-based; set-up: dose 5 mg/kg
# [8] = molecular target: T1, Transient receptor potential cation channel subfamily V member 1; test: Displacement of [3H]RTX from rat TRPV1 expressed in HEK cells; type: cell-based, HEK293
# [9] = molecular target: T1, Transient receptor potential cation channel subfamily V member 1; test: Inhibition of rat TRPV1 expressed in HEK cells; type: cell-based, HEK293
# [10] = molecular target: T2, Transient receptor potential cation channel subfamily V member 1; test: Inhibition of human TRPV1 expressed in HEK cells; type: cell-based, HEK293
# [11] = Oral bioavailability in fasted Sprague-Dawley rat at 2 mg/kg; type: ADME, organism-based; conditions: in vivo
# [12] = Tmax in fasted Sprague-Dawley rat at 2 mg/kg, po; type: ADME, organism-based; set-up: dose 2 mg/kg, route oral; conditions: in vivo
# [13] = AUC (infinity) in fasted Sprague-Dawley rat at 2 mg/kg, po; type: ADME, organism-based; set-up: time infinity, dose 2 mg/kg, route oral; conditions: plasma
# [14] = Cmax in fasted Sprague-Dawley rat at 2 mg/kg, po; type: ADME, organism-based; set-up: dose 2 mg/kg, route oral; conditions: in vivo
# [15] = Half life in fasted Sprague-Dawley rat at 0.5 mg/kg, iv and 2 mg/kg, po; type: ADME, organism-based; conditions: in vivo
# [16] = Volume of distribution at steady state in fasted Sprague-Dawley rat at 0.5 mg/kg, iv and 2 mg/kg, po; type: ADME, organism-based; conditions: in vivo, read-out: Vdss
# [17] = Clearance in fasted Sprague-Dawley rat at 0.5 mg/kg, iv and 2 mg/kg, po; type: ADME, organism-based; conditions: in vivo
# [18] = Terminal plasma concentration in rat at 5 mg/kg, po administered 5 hrs post-carrageenan challenge; type: ADME, organism-based; set-up: dose 5 mg/kg, route oral; conditions: read-out: Cp(T)
# [19] = Terminal plasma concentration in rat at 30 mg/kg, po administered 5 hrs post-carrageenan challenge; type: ADME, organism-based; set-up: dose 30 mg/kg, route oral; conditions: read-out: Cp(T)
# T1 sequence (O35433 whole entry): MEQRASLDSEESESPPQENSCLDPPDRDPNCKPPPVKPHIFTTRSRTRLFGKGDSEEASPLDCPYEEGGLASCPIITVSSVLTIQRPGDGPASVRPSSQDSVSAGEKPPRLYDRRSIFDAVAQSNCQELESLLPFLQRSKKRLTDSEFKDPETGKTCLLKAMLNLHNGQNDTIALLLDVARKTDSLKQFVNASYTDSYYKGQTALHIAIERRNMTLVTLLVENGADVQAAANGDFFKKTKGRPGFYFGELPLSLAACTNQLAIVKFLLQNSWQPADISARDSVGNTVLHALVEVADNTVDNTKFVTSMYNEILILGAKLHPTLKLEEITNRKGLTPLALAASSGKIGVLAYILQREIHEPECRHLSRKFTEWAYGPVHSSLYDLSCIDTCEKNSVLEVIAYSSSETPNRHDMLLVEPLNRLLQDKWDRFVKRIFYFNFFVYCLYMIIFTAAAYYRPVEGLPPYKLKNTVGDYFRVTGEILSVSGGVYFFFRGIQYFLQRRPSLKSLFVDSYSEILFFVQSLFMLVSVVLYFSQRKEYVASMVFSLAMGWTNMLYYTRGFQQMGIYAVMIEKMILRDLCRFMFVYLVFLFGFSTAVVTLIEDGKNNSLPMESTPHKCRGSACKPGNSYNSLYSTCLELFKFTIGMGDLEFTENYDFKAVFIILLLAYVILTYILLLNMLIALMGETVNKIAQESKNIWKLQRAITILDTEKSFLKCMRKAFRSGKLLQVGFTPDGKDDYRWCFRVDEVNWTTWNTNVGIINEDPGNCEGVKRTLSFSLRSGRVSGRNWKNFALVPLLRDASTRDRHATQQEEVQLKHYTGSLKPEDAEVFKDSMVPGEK
# T2 sequence (Q8NER1 whole entry): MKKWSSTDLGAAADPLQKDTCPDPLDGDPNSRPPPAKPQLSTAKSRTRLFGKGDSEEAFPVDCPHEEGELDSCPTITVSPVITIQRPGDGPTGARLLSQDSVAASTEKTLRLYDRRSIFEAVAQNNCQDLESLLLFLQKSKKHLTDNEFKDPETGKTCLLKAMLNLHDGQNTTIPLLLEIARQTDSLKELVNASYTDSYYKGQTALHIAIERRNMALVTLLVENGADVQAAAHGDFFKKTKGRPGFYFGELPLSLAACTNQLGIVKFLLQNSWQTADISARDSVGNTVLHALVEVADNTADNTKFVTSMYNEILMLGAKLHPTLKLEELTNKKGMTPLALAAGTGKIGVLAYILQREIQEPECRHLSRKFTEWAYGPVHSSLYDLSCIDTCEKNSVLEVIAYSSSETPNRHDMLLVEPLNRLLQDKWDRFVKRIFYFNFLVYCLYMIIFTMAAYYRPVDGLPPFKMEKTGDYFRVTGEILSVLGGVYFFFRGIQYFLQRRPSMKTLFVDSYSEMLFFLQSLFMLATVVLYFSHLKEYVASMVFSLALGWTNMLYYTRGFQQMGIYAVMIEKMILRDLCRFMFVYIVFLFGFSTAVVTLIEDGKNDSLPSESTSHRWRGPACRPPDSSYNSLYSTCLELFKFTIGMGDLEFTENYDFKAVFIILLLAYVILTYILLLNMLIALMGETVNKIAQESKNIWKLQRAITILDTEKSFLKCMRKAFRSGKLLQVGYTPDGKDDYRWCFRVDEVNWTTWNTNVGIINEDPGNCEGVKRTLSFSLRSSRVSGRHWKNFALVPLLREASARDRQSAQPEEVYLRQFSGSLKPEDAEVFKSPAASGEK
SMILES,solubility thermodynamic [1] [µg/mL],solubility thermodynamic [2] [µg/mL],IC50 [3] [nM],IC50 [4] [nM],other results
CN(C)CCN(C)c1nc2c(c(Nc3ccc(C(F)(F)F)cc3)n1)CCN(c1ncccc1C(F)(F)F)CC2,210,> 221,4450,2670,–
FC(F)(F)c1ccc(Nc2nc(N3CCOCC3)nc3c2CCN(c2ncccc2C(F)(F)F)CC3)cc1,–,–,–,–,clearance [5]: 51.7 mL/min/kg
CN(CC1CCCCN1C)c1nc2c(c(Nc3ccc(C(F)(F)F)cc3)n1)CCN(c1ncccc1C(F)(F)F)CC2 (stereo not drawn),> 283,> 283,> 5000,3330,–
FC(F)(F)c1ccc(Nc2nc(N3CCNCC3)nc3c2CCN(c2ncccc2C(F)(F)F)CC3)cc1,158,215,> 5000,–,–
CNC1CCN(c2nc3c(c(Nc4ccc(C(F)(F)F)cc4)n2)CCN(c2ncccc2C(F)(F)F)CC3)C1 (stereo not drawn),233,> 220,> 5000,2790,–
CN(c1nc2c(c(Nc3ccc(C(F)(F)F)cc3)n1)CCN(c1ncccc1C(F)(F)F)CC2)C1CCCNC1 (stereo not drawn),211,> 241,1540,3600,–
CN1CCCC(N(C)c2nc3c(c(Nc4ccc(C(F)(F)F)cc4)n2)CCN(c2ncccc2C(F)(F)F)CC3)C1 (stereo not drawn),> 232,> 232,> 5000,> 5000,–
CN(C)[C@@H]1CCN(c2nc3c(c(Nc4ccc(C(F)(F)F)cc4)n2)CCN(c2ncccc2C(F)(F)F)CC3)C1,57,> 226,1040,243,–
CN(C)CCN1CCN(c2nc3c(c(Nc4ccc(C(F)(F)F)cc4)n2)CCN(c2ncccc2C(F)(F)F)CC3)CC1,> 243,> 243,2600,2000,–
CN1CCCCC1CNc1nc2c(c(Nc3ccc(C(F)(F)F)cc3)n1)CCN(c1ncccc1C(F)(F)F)CC2 (stereo not drawn),254,> 277,2280,1760,–
OCCN1CCN(c2nc3c(c(Nc4ccc(C(F)(F)F)cc4)n2)CCN(c2ncccc2C(F)(F)F)CC3)CC1,4,> 233,1160,498,–
CN(C)[C@H]1CCN(c2nc3c(c(Nc4ccc(C(F)(F)F)cc4)n2)CCN(c2ncccc2C(F)(F)F)CC3)C1,57,> 226,586,185,–
NC1CCN(c2nc3c(c(Nc4ccc(C(F)(F)F)cc4)n2)CCN(c2ncccc2C(F)(F)F)CC3)C1 (stereo not drawn),> 215,> 215,> 5000,3700,–
FC(F)(F)c1ccc(Nc2nc(NCc3ccccn3)nc3c2CCN(c2ncccc2C(F)(F)F)CC3)cc1,1,224,1340,476,–
CN1CCCC(Nc2nc3c(c(Nc4ccc(C(F)(F)F)cc4)n2)CCN(c2ncccc2C(F)(F)F)CC3)C1 (stereo not drawn),226,204,> 5000,3080,–
FC(F)(F)c1ccc(Nc2nc(NC3CCCNC3)nc3c2CCN(c2ncccc2C(F)(F)F)CC3)cc1 (stereo not drawn),203,> 235,> 5000,> 5000,–
FC(F)(F)c1ccc(Nc2nc(NCC3CCCCN3)nc3c2CCN(c2ncccc2C(F)(F)F)CC3)cc1 (stereo not drawn),237,> 272,> 5000,100,–

# More lines, in order of falling IC50 [3], values ahead:
solubility thermodynamic [1] [µg/mL],solubility thermodynamic [2] [µg/mL],IC50 [3] [nM],IC50 [4] [nM],SMILES,other results
6,> 226,506,132,CCN1CCN(c2nc3c(c(Nc4ccc(C(F)(F)F)cc4)n2)CCN(c2ncccc2C(F)(F)F)CC3)CC1,–
193,> 221,506,–,CN1CCN(c2nc3c(c(Nc4ccc(C(F)(F)F)cc4)n2)CCN(c2ncccc2C(F)(F)F)CC3)CC1,–
2,21,460,62,CC(=O)N(C)C1CCN(c2nc3c(c(Nc4ccc(C(F)(F)F)cc4)n2)CCN(c2ncccc2C(F)(F)F)CC3)C1 (stereo not drawn),–
19,202,410,150,CC(=O)NC1CCN(c2nc3c(c(Nc4ccc(C(F)(F)F)cc4)n2)CCN(c2ncccc2C(F)(F)F)CC3)C1 (stereo not drawn),–
2,> 232,386,–,CC(C)N1CCN(c2nc3c(c(Nc4ccc(C(F)(F)F)cc4)n2)CCN(c2ncccc2C(F)(F)F)CC3)CC1,half-life [15]: 1.5 h; Vd [16]: 5.1 L/kg; clearance [17]: 80 mL/min/kg
14,1,239,140,CC(C)(C)OC(=O)N1CCCC(Nc2nc3c(c(Nc4ccc(C(F)(F)F)cc4)n2)CCN(c2ncccc2C(F)(F)F)CC3)C1 (stereo not drawn),–
3,3,230,250,CC(C)(C)OC(=O)N1CCCCC1CNc1nc2c(c(Nc3ccc(C(F)(F)F)cc3)n1)CCN(c1ncccc1C(F)(F)F)CC2 (stereo not drawn),–
6,> 238,207,65,COCCN1CCN(c2nc3c(c(Nc4ccc(C(F)(F)F)cc4)n2)CCN(c2ncccc2C(F)(F)F)CC3)CC1,–
109,243,185,41,CCC(CC)N1CCN(c2nc3c(c(Nc4ccc(C(F)(F)F)cc4)n2)CCN(c2ncccc2C(F)(F)F)CC3)CC1,–
2,> 237,161,24,FC(F)(F)c1ccc(Nc2nc(N3CCN(C4CCC4)CC3)nc3c2CCN(c2ncccc2C(F)(F)F)CC3)cc1,–
11,221,123,15,FC(F)(F)c1ccc(Nc2nc(N3CCN(C4CCCC4)CC3)nc3c2CCN(c2ncccc2C(F)(F)F)CC3)cc1,–
4,1,97,53,CN(c1nc2c(c(Nc3ccc(C(F)(F)F)cc3)n1)CCN(c1ncccc1C(F)(F)F)CC2)C1CCCN(C(=O)OC(C)(C)C)C1 (stereo not drawn),–
11,> 237,89,11,CC(C)CN1CCN(c2nc3c(c(Nc4ccc(C(F)(F)F)cc4)n2)CCN(c2ncccc2C(F)(F)F)CC3)CC1,Activity (Rattus norvegicus [6]): 100%; Activity (Rattus norvegicus [7]): Active; IC50 [8]: 330 nM; IC50 [9]: 63 nM; IC50 [10]: 67 nM; bioavailability [11]: 21%; Tmax [12]: 2.3 h; AUC(0-inf) [13]: 598 ng·h/mL; Cmax [14]: 300 nM; half-life [15]: 1.8 h; Vd [16]: 0.5 L/kg; clearance [17]: 11.7 mL/min/kg; concentration at 5 h [18]: 277 nM; concentration at 5 h [19]: 1050 nM
9,230,45,11,FC(F)(F)c1ccc(Nc2nc(N3CCN(C4CC4)CC3)nc3c2CCN(c2ncccc2C(F)(F)F)CC3)cc1,half-life [15]: 1.6 h; Vd [16]: 1 L/kg; clearance [17]: 21.7 mL/min/kg
